# Values of other authors as cited in paper PMC11843658 (Journal of Enzyme Inhibition and Medicinal Chemistry, 2025).
# Test system: Kasumi-1 xenograft
# Design: method as in PMID 32551003
# Conditions: Kasumi-1 xenograft model of acute myeloid leukaemia; cited from earlier work
smiles,measurement,value
CC/C(=C\c1ccccc1)[C@@H]1C[C@H]1NC1CC2(C1)CN(CCO)C2 [Compound 5],anticancer effects in xenograft model,potent anticancer effects
